This is an account of results in patent US5338858A, “Triazolyl, tetrazolyl and azido-substituted fatty acid analog enzyme substrates” (Washington University, priority 1992, dated 1994).

Test [1] addresses T1, yeast N-myristoyltransferase (Saccharomyces cerevisiae, UniProt P14743).
T1 sequence (P14743 1-455): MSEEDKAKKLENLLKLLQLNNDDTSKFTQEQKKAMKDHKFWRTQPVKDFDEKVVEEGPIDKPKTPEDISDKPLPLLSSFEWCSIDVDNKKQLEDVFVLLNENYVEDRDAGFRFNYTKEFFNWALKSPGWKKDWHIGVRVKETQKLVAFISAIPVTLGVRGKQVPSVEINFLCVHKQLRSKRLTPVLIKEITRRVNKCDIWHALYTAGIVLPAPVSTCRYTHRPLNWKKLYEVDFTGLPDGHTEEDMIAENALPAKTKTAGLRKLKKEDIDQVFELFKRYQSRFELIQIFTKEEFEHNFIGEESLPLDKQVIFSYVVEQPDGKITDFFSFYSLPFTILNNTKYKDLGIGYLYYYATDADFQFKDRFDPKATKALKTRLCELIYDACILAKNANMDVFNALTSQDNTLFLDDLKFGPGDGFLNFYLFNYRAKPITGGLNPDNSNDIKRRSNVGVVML
Briefly: in vitro yeast N-myristoyltransferase (NMT) assay, substrate activity of fatty acyl CoA derivatives. In kind it is biochemical. As to conditions: peptide GSAASARR-NH2, 30° C., 10 minutes; normalized to myristoyl peptide of parallel assay. The protocol:
A. Representative compounds prepared in the foregoing illustrative specific examples were analyzed in a conventional in vitro yeast N-myristoyltransferase (NMT) assay as published by Heuckeroth et al., Proc. Nat'l Acad. Sci. USA 85, 8795-8799 (1988). In this assay, the test compounds were first converted to their respective fatty acyl CoA derivatives and then tested as substrates for the yeast NMT.
The assay conditions [essentially the same as those reported by Towler and Glaser, Proc. Natl. Acad. Sci. USA 83, 2812-2816 (1986)] were as follows:
1. Ligase reaction: 3.3 μmoles fatty acid, 5 mM ATP and 1 mM CoA were incubated with 15-150 milliunits of CoA ligase (1 unit/ml in 50 mM HEPES, pH 7.3) in a buffer composed of 10 mM TRIS-HCl, pH 7.4, 1 mM dithiothreitol, 5 mM MgCl2 and 0.1 mM EGTA, in a total volume of 50 μl for 25 minutes at 30° C.
2. NMT assay: 50 μl of the CoA ligase mixture was added to a 50 μl solution of 90 μM peptide (GSAASARR-NH2) in a buffer composed of 10 mM TRIS-HCl, pH 7.4, 1 mM dithiothreitol, 0.01 mM EGTA and aprotinin (10 μg/ml). 0.4 Unit of yeast N-myristoyltransferase was then added and the reaction mixture was incubated at 30° C. for 10 minutes. The peptide was radiolabeled with tritiated alanine in position 3. The reaction was quenched with 120 μl of TCA-MeOH and 75 μl was injected on a reverse phase C18 HPLC column and eluted with a linear gradient of 0-100% acetonitrile over 100 minutes (both water and acetonitrile containing 0.1% trifluoroacetic acid). Radioactivity was assessed with an on line radiomatic detector corrected for quenching.
The amount of radioactivity was determined for each azido-substituted fatty acyl peptide product and then was normalized to the amount of myristoyl peptide produced in an assay run in parallel.

Test [2] relates to HIV-1. As to the kind of experiment: HIV inhibition assay of acutely infected CEM cells (MTT tetrazolium colorimetric, reduction of CPE). It counts as cell-based. As to conditions: for IC50 / inhibition at 1 µg/mL / inhibition at 10 µg/mL: Human immunodeficiency virus 1, CCRF-CEM, 168 h; for IC50: read-out: ID50 (inhibitory dose that inhibits 50% of the cytopathic effect); for inhibition at 1 µg/mL / inhibition at 10 µg/mL: read-out: Percent Reduction of CPE. The protocol:
B. Representative compounds prepared in the foregoing illustrative specific examples were also tested in vitro for the assessment of anti-viral (HIV) activity as follows:
The HIV inhibition assay method of acutely infected cells is an automated tetrazolium based colorimetric assay adatped from that reported by Pauwles et al., J. Virol. Methods, 20, 309-321 (1988). Assays were performed in 96-well tissue culture plates. CEM cells were grown in RPMI-1640 medium (Gibco) supplemented with 10% fetal calf serum and were then treated with polybrene (2 μg/ml). An 80 μl volume of medium containing 1×10^4 cells was dispensed into each well of the tissue culture plate. To each well was added a 100 μl volume of test compound dissolved in tissue culture medium (or medium without test compound as a control) to achieve the desired final concentration and the cells were incubated at 37° C. for 1 hour. A frozen culture of HIV-1 was diluted in culture medium to a concentration of 5×10^4 TCID50 per ml (TCID50 =the dose of virus that infects 50% of cells in tissue culture), and a 20 μl volume of the virus sample (containing 1000 TCID50 of virus) was added to wells containing test compound and to wells containing only medium (infected control cells). […] Several wells received culture medium without virus (uninfected control cells). Likewise, the intrinsic toxicity of the test compound was determined by adding medium without virus to several wells containing test compound. In summary, the tissue culture plates contained the following tests (in triplicate):
In tests 2 and 4 the final concentrations of test compounds were 1, 10, 100 and 500 μg/ml. Azidothymidine (AZT) was tested as a positive drug control, and dodecanoic acid was tested as a negative fatty acid control. […] Under these conditions, DMSO had no significant effect on results as determined in controls.
Following the addition of virus, cells were incubated at 37° C. in a humidified, 5% CO2 atmosphere for 7 days. Additional aliquots of test compounds were added on days 2 and 5. On day 7 post-infection, the cells in each well were resuspended and a 100 μl sample of each cell suspension was removed for assay. A 20 μl volume of a 5 mg/ml solution of 3-(4,5-dimethylthiazol-2-yl)-2,5-diphenyltetrazolium bromide (MTT) was added to each 100 μl cell suspension, and the cells were incubated for 4 hours at 37° C. in a 5% CO2 environment. […] To each sample was added 100 μl of 10% sodium dodecylsulfate in 0.01 N HCl to lyse the cells and samples were incubated overnight. The absorbance of each sample was determined.at 590 nm using a Molecular Devices microplate reader. The % reduction of the virus induced cytopathic effect (CPE) by the test compounds was determined using the formula shown at the bottom of Table 2, hereinafter.
The results of the antiviral testing are set forth in Table 2, as percent reduction in cytopathic effect (CPE). The inhibitory dose that inhibits 50% of the cytopathic effect is shown as ID50 (μg/ml).
^a The percent reduction of viral CPE was calculated by the formula: […]
Background: Protection from cytopathic effect is a common read-out in antiviral testing.

Test [3] concerns HIV-1. The description is as above. In kind it is cell-based. The following applies: Human immunodeficiency virus 1, CCRF-CEM, 168 h, read-out: Percent Reduction of CPE.
[4] abbreviates: concentration 1 (μg/ml), CEM cells, HIV-1, 7 days.
Setting [5] is: concentration 10 (μg/ml), CEM cells, HIV-1, 7 days.

Converted amounts (≈) assume the structure as drawn. Like-named read-outs stand apart in the source and are kept apart here. Bounds are passed on as bounds.

In the case of `[N-]=[N+]=NCCCOCCCCCCCC(=O)O` [Compound 41, 8-(1-Azido-propane-3-oxa)octanoic acid], in test [1], the “Activity (% of Myristate)” value is on record as 421 % of Myristate. Further, in the test on HIV-1 [2] (CEM cells, HIV-1, 7 days), the IC50 is 5 µg/mL (≈ 20.6 µM). Further, the inhibition at 1 µg/mL in the test with HIV-1 [2] (setting [4]) worked out at 14%. The inhibition at 10 µg/mL in the test with HIV-1 [2] (setting [5]) is 66%.
For the compound `[N-]=[N+]=NCCCCCCCCC(=O)O` [Compound 3, 9-Azidononanoic acid], the “Activity (% of Myristate)” value in test [1] is listed as 55 % of Myristate.
On to `[N-]=[N+]=NCCCCCCCCCCC(=O)O` [Compound 2, 11-Azidoundecanoic acid], for which the “Activity (% of Myristate)” value in test [1] is given as 100 % of Myristate. Further, the inhibition at 1 µg/mL with HIV-1 [2] (setting [4]) is 16.3%. Further, the inhibition at 10 µg/mL in the test with HIV-1 [2] (setting [5]) was determined as 34.6%.
`[N-]=[N+]=NCCCCCCSCCCCC(=O)O` [Compound 13, 5-(1-Azido-hexane-6-thia)pentanoic acid]: the “Activity (% of Myristate)” value in test [1] was 103 % of Myristate. Moreover, in the test on HIV-1 [2] (CEM cells, HIV-1, 7 days), the “ID50 (inhibitory dose that inhibits 50% of the cytopathic effect)” value is “Inactive”. Besides, the inhibition at 1 µg/mL in the test on HIV-1 [2] (setting [4]) turned out to be 0%. For the same compound, the inhibition at 10 µg/mL in the test with HIV-1 [2] (setting [5]) was 14%.
Take `CCCCCCCCCC(=O)O` [Decanoic acid, reference compound]: in the test on HIV-1 [2], the inhibition at 1 µg/mL came out at 7.7% and the inhibition at 10 µg/mL was determined as 11.3%.
As for `Cc1cn([C@H]2C[C@H](N=[N+]=[N-])[C@@H](CO)O2)c(=O)[nH]c1=O` [AZT, Azidothymidine], the IC50 in the test with HIV-1 [2] (CEM cells, HIV-1, 7 days) was below 0.001 µg/mL. Besides, the inhibition at 0.5 µg/mL in the test on HIV-1 [3] came to 87.8%. Further, the inhibition at 0.001 µg/mL in the test with HIV-1 [3] (0.001 μg/ml, CEM cells, HIV-1, 7 days) came out at 58.2%. In the test on HIV-1 [3] (0.01 μg/ml, CEM cells, HIV-1, 7 days), the inhibition at 0.01 µg/mL was determined as 84.8%. For the same compound, in the test with HIV-1 [3] (0.1 μg/ml, CEM cells, HIV-1, 7 days), the inhibition at 0.1 µg/mL was 101%.
As to `O=C(O)CCCCCCCCCCCn1nccn1` [Compound 50, 12-(N-2-[1,2,3]-Triazolyl)dodecanoic acid], in test [1], the “Activity (% of Myristate)” value is given as 99 % of Myristate. Also, the inhibition at 1 µg/mL in the test with HIV-1 [2] (setting [4]) was found to be 19.5%. Besides, the inhibition at 10 µg/mL in the test on HIV-1 [2] (setting [5]) amounted to 30.8%.
As for `[N-]=[N+]=NCCCCCCOCCCCC(=O)O` [Compound 42, 5-(1-Azido-hexane-6-oxa)pentanoic acid], in test [1], the “Activity (% of Myristate)” value was 622 % of Myristate. Besides, in the test on HIV-1 [2] (CEM cells, HIV-1, 7 days), the “ID50 (inhibitory dose that inhibits 50% of the cytopathic effect)” value is “Inactive”. In the test with HIV-1 [2] (setting [4]), the inhibition at 1 µg/mL worked out at 4%. For the same compound, the inhibition at 10 µg/mL in the test with HIV-1 [2] (setting [5]) stood at 20%.
As to `O=C(O)CCCCCCCCCCCn1cncn1` [Compound 48], the “Activity (% of Myristate)” value in test [1] was 23 % of Myristate. Moreover, the IC50 in the test on HIV-1 [2] (CEM cells, HIV-1, 7 days) is 4.2 µg/mL (≈ 15.7 µM). For the same compound, the inhibition at 1 µg/mL with HIV-1 [2] (setting [4]) was 24%. Moreover, the inhibition at 10 µg/mL with HIV-1 [2] (setting [5]) turned out to be 66%.
On to `[N-]=[N+]=NCCCCCCCCCOCC(=O)O` [Compound 43, 2-(1-Azido-nonane-9-oxa)acetic acid], for which, in test [1], the “Activity (% of Myristate)” value is recorded as 11 % of Myristate. Besides, the “ID50 (inhibitory dose that inhibits 50% of the cytopathic effect)” value in the test with HIV-1 [2] (CEM cells, HIV-1, 7 days) is listed as “Inactive”.
For `[N-]=[N+]=NCCCCCCCCCCCC(=O)O` [Compound 1, 12-Azidododecanoic acid], in test [1], the “Activity (% of Myristate)” value was 142 % of Myristate. The IC50 with HIV-1 [2] (CEM cells, HIV-1, 7 days) amounted to 0.3 µg/mL (≈ 1.24 µM). For the same compound, the inhibition at 1 µg/mL in the test with HIV-1 [2] (setting [4]) was found to be 81.7%. Moreover, the inhibition at 10 µg/mL in the test on HIV-1 [2] (setting [5]) came out at 38.2%.
With `[N-]=[N+]=NCCCCCCCCSCCC(=O)O` [Compound 23, 4-(1-Azido-octane-6-thia)propionic acid], in test [1], the “Activity (% of Myristate)” value is recorded as 373 % of Myristate. Further, the “ID50 (inhibitory dose that inhibits 50% of the cytopathic effect)” value with HIV-1 [2] (CEM cells, HIV-1, 7 days) was “Inactive”. Also, in the test on HIV-1 [2], the inhibition at 1 µg/mL turned out to be 0% and the inhibition at 10 µg/mL amounted to 0%.
As for `[N-]=[N+]=NCCOCCCCCCCCC(=O)O` [Compound 40, 9-(1-Azido-ethane-2-oxa)nonanoic acid], in test [1], the “Activity (% of Myristate)” value is 280 % of Myristate.
On to `[N-]=[N+]=NCCCCCCCCCSCC(=O)O` [Compound 19, 2-(1-Azido-nonane-9-thia)acetic acid], for which the “Activity (% of Myristate)” value in test [1] is given as 17 % of Myristate. For the same compound, the IC50 with HIV-1 [2] (CEM cells, HIV-1, 7 days) amounted to 9.2 µg/mL (≈ 35.5 µM). Also, the inhibition at 1 µg/mL with HIV-1 [2] (setting [4]) was 1%. Moreover, the inhibition at 10 µg/mL with HIV-1 [2] (setting [5]) came to 54%.
For `COCCCCCCCCCCCC(=O)O` [13-Oxamyristate, reference compound], the IC50 in the test with HIV-1 [2] (CEM cells, HIV-1, 7 days) amounted to 0.3 µg/mL (≈ 1.3 µM). Also, the inhibition at 1 µg/mL in the test with HIV-1 [2] (setting [4]) amounted to 66.4%. Moreover, the inhibition at 10 µg/mL with HIV-1 [2] (setting [5]) was 43.5%.
For the compound “12-(Tetrazolyl)dodecanoic acid [Compound 46]”, the “Activity (% of Myristate)” value in test [1] is given as 46 % of Myristate. In the test with HIV-1 [2] (CEM cells, HIV-1, 7 days), the “ID50 (inhibitory dose that inhibits 50% of the cytopathic effect)” value stood at 5.9 µg/mL. Moreover, the “Percent Reduction of CPE” value in the test on HIV-1 [2] (setting [4]) turned out to be 12%; in the test on HIV-1 [2] (setting [5]) it was 65%.
